# Columns and labels:
# Tyk2 = Tyk2 (Homo sapiens (Human), UniProt P29597); test: Biochemical Tyk2 kinase assay (LanthaScreen)
# Outline: (§1)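 GST-JAK + GFP-STAT1 peptide, HEPES pH 7.5/MgCl2/EGTA/Brij-35 buffer; cpd preincubation 1 h RT; ATP start, 1 h RT; stop with 10 mM EDTA + 2 nM Tb-anti-pSTAT1; TR-FRET 520/495. 4-parameter IC50 → pKi (Cheng-Prusoff).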
# JAK1 = JAK1 (Homo sapiens (Human), UniProt P23458); test: Biochemical JAK1 kinase assay (LanthaScreen)
# Outline: as §1
# [1] = test system: IL-2 stimulated STAT5 phosphorylation in Tall-1 human T cell line (JAK3); test: Cellular JAK3 potency assay: inhibition of IL-2 stimulated pSTAT5 in Tall-1 T cells; assay type: cell-based
# Outline: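 Tall-1 cells, 45,000 per well, preincubated 1 hour with compound at 37 °C, then stimulated 30 minutes with IL-2 at 300 ng/ml final. pSTAT5 (Tyr694/699) in lysates quantified by AlphaLISA SureFire Ultra. pIC50 derived from inhibition curves, given as mean with SD.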
# JAK3 = JAK3 (Homo sapiens (Human), UniProt P52333); test: Biochemical JAK3 kinase assay (LanthaScreen)
# Outline: as §1
# JAK2 = JAK2 (Homo sapiens (Human), UniProt O60674); test: Biochemical JAK2 kinase assay (LanthaScreen)
# Outline: as §1
# [2] = IL-2 stimulated pSTAT5, Tall-1 T cells
# [3] = selectivity JAK3 over JAK1, difference of pKi
# Chain of JAK2 (O60674 whole entry): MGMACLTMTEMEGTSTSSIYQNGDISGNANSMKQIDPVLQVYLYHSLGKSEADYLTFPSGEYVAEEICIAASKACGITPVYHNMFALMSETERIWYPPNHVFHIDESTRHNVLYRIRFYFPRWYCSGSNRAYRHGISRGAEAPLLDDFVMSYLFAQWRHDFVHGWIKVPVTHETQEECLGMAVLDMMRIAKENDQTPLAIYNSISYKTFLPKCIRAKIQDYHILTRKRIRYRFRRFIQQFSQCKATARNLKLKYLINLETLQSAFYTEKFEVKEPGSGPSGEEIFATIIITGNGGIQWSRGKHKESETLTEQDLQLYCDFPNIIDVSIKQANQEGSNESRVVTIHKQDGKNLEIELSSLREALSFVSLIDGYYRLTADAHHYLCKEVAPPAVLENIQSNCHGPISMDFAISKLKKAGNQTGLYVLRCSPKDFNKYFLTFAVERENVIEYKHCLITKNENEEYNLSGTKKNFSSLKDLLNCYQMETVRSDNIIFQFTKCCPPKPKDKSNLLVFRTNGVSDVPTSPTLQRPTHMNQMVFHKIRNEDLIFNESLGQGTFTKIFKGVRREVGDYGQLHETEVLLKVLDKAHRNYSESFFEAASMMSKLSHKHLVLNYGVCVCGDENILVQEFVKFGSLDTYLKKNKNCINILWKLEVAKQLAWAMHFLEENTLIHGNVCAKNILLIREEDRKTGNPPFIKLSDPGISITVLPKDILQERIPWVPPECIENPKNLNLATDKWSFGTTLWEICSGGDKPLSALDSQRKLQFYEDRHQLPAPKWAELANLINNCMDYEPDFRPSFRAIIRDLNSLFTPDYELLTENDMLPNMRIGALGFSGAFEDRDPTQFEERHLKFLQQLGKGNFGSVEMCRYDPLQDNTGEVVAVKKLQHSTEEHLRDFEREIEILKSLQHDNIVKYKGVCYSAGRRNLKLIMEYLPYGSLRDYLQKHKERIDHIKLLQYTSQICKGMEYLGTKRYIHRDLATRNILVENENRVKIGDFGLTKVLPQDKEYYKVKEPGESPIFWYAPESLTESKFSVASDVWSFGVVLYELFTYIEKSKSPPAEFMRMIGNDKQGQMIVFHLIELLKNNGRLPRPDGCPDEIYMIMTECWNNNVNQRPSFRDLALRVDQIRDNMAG
# Chain of Tyk2 (P29597 whole entry): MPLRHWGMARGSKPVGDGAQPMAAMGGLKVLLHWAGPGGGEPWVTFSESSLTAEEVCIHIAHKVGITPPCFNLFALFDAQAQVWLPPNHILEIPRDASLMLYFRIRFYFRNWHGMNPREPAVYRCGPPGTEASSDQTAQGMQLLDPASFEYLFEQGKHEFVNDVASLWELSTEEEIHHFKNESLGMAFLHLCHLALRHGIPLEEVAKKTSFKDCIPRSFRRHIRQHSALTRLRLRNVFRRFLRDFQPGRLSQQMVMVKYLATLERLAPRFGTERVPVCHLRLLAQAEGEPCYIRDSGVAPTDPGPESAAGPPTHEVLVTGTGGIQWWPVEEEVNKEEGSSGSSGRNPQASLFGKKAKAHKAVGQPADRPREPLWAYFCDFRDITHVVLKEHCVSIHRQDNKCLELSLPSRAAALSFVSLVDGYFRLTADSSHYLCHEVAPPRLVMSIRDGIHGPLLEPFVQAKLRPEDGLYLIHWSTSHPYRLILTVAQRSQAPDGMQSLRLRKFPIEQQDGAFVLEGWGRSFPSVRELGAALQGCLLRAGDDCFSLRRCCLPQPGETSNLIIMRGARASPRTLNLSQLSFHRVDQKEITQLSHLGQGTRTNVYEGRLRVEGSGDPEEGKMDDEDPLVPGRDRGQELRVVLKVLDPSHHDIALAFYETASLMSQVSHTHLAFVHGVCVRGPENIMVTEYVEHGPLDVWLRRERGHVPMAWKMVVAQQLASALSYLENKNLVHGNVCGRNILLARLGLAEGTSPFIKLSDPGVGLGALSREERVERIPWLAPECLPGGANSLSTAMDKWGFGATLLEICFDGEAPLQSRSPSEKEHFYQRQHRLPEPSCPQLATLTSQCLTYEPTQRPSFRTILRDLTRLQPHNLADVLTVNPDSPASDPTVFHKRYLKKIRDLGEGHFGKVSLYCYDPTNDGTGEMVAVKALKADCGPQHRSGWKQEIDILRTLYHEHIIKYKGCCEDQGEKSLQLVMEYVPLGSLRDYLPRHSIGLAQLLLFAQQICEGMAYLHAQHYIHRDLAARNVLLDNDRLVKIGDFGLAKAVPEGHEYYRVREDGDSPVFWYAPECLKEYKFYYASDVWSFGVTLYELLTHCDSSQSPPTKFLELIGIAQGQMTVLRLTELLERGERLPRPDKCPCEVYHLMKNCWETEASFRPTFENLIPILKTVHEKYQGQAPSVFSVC
# Chain of JAK1 (P23458 whole entry): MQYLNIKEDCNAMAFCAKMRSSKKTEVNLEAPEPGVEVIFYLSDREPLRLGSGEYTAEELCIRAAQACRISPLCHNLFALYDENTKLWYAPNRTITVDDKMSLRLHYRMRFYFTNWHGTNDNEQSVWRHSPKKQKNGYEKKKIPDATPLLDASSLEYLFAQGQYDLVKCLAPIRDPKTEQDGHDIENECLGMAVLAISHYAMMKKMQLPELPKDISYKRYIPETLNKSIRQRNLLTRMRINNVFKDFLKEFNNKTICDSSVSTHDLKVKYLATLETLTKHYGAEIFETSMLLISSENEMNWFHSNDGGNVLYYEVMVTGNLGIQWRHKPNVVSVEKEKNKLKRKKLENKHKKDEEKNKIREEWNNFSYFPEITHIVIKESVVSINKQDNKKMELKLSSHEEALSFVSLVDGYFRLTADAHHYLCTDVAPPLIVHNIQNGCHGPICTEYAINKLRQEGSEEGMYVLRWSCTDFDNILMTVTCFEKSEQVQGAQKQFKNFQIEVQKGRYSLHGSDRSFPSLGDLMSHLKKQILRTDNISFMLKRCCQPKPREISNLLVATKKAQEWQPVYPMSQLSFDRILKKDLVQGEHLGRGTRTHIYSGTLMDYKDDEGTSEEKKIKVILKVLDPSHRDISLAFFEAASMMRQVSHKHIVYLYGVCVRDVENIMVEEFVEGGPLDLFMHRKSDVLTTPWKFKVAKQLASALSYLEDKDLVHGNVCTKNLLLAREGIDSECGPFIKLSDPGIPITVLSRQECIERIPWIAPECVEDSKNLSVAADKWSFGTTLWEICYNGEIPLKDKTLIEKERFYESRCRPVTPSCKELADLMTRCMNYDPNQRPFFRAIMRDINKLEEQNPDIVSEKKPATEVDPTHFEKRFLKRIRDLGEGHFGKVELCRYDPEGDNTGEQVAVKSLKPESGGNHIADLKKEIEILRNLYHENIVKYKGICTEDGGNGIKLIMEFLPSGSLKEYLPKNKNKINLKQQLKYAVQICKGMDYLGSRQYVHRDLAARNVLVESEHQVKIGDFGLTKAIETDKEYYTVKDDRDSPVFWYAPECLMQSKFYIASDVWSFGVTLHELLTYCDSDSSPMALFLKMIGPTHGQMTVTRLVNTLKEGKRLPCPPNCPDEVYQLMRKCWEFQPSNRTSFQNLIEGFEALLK
# Chain of JAK3 (P52333 whole entry): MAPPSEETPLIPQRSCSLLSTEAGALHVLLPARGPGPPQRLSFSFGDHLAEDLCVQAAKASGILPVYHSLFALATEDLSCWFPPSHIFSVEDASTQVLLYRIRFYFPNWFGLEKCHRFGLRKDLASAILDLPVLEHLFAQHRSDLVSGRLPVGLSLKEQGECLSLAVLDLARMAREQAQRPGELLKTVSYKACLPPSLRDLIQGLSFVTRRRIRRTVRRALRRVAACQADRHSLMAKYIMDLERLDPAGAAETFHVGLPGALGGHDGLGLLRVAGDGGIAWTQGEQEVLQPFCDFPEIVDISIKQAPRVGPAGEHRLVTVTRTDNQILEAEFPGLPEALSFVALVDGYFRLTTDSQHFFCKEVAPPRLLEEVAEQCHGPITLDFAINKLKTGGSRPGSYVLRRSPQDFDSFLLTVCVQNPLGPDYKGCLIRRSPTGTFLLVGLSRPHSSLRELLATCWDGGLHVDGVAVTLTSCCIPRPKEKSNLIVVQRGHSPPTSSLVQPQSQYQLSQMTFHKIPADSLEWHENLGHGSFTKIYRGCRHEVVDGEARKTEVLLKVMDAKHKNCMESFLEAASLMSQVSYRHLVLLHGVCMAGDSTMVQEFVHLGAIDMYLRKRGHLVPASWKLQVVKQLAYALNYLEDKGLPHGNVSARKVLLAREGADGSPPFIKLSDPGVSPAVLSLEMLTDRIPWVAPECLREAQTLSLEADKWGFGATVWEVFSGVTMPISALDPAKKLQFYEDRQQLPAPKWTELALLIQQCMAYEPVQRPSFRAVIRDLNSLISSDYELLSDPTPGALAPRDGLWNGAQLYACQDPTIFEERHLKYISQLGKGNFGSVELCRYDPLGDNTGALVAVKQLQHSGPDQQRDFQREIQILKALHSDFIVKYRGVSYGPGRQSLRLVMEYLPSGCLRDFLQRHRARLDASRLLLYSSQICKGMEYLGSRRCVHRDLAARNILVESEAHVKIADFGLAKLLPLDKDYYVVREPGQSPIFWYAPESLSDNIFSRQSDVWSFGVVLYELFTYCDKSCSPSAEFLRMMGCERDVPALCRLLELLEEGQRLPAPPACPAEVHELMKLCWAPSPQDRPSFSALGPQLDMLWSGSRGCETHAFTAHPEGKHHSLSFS
compound,measurement,setting,value
C=CC(=O)N1CC(CC)(CCn2c(=O)ccc3cnc(Nc4ccc(N5CCN(C)CC5)cc4)nc32)C1 [Example 217],Tyk 2 (pKi),Tyk2,E (E represents a pKi value of 7 or below (Ki of 100 nM or above))
same,JAK 1 (pKi),JAK1,E (E represents a pKi value of 7 or below (Ki of 100 nM or above))
same,Tall-1 (pIC50),[1]; [2],A (A represents a pIC50 value≥7.5 (IC50≤32 nM))
same,JAK 3 (pKi),JAK3,B (B represents pKi value between 9 and 10 (Ki between 1 nM and 0.1 nM))
same,JAK3 (pKi)-JAK1 (pKi),JAK3; [3],A (A represents a value of 3 or above)
same,JAK 2 (pKi),JAK2,D (D represents a pKi value between 7 and 8 (Ki between 100 nM and 10 nM))
C=CC(=O)N1CC(CCn2c(=O)ccc3cnc(Nc4cccc(N5CCN(S(=O)(=O)CCOC)CC5)c4)nc32)C1 [Example 122],Tyk 2 (pKi),Tyk2,E (E represents a pKi value of 7 or below (Ki of 100 nM or above))
same,JAK 1 (pKi),JAK1,E (E represents a pKi value of 7 or below (Ki of 100 nM or above))
same,Tall-1 (pIC50),[1]; [2],B (B represents a pC50 value between 6.7 (included) and 7.5 (IC50 between 200 nM and 32 nM))
same,JAK 3 (pKi),JAK3,B (B represents pKi value between 9 and 10 (Ki between 1 nM and 0.1 nM))
same,JAK3 (pKi)-JAK1 (pKi),JAK3; [3],A (A represents a value of 3 or above)
same,JAK 2 (pKi),JAK2,E (E represents a pKi value of 7 or below (Ki of 100 nM or above))
C=CC(=O)N1CCN(CCn2c(=O)ccc3cnc(Nc4ccc(N5CCN(C(C)(C)C)CC5)cc4)nc32)CC1 [Example 219],Tyk 2 (pKi),Tyk2,E (E represents a pKi value of 7 or below (Ki of 100 nM or above))
same,JAK 1 (pKi),JAK1,E (E represents a pKi value of 7 or below (Ki of 100 nM or above))
same,Tall-1 (pIC50),[1]; [2],A (A represents a pIC50 value≥7.5 (IC50≤32 nM))
same,JAK 3 (pKi),JAK3,B (B represents pKi value between 9 and 10 (Ki between 1 nM and 0.1 nM))
same,JAK3 (pKi)-JAK1 (pKi),JAK3; [3],A (A represents a value of 3 or above)
same,JAK 2 (pKi),JAK2,E (E represents a pKi value of 7 or below (Ki of 100 nM or above))
C=CC(=O)N1CC(CCn2c(=O)ccc3cnc(Nc4cccc(CN5CCN(S(=O)(=O)CCOC)CC5)c4)nc32)C1 [Example 132],Tyk 2 (pKi),Tyk2,E (E represents a pKi value of 7 or below (Ki of 100 nM or above))
same,JAK 1 (pKi),JAK1,E (E represents a pKi value of 7 or below (Ki of 100 nM or above))
same,Tall-1 (pIC50),[1]; [2],B (B represents a pC50 value between 6.7 (included) and 7.5 (IC50 between 200 nM and 32 nM))
same,JAK 3 (pKi),JAK3,A (A represents a pKi value≥10 (Ki≤0.1 nM))
same,JAK3 (pKi)-JAK1 (pKi),JAK3; [3],A (A represents a value of 3 or above)
same,JAK 2 (pKi),JAK2,E (E represents a pKi value of 7 or below (Ki of 100 nM or above))
C=CC(=O)N1CCN(CCn2c(=O)ccc3cnc(Nc4cnn(CCOC(C)C)c4)nc32)[C@@H](CC)C1 [Example 220],Tyk 2 (pKi),Tyk2,E (E represents a pKi value of 7 or below (Ki of 100 nM or above))
same,JAK 1 (pKi),JAK1,E (E represents a pKi value of 7 or below (Ki of 100 nM or above))
same,Tall-1 (pIC50),[1]; [2],B (B represents a pC50 value between 6.7 (included) and 7.5 (IC50 between 200 nM and 32 nM))
same,JAK 3 (pKi),JAK3,B (B represents pKi value between 9 and 10 (Ki between 1 nM and 0.1 nM))
same,JAK3 (pKi)-JAK1 (pKi),JAK3; [3],A (A represents a value of 3 or above)
same,JAK 2 (pKi),JAK2,E (E represents a pKi value of 7 or below (Ki of 100 nM or above))
C=CC(=O)N1CC(CCn2c(=O)ccc3cnc(Nc4cccc(C(C)N5CCN(C(C)=O)CC5)c4)nc32)C1 (stereo not drawn) [Example 216],Tyk 2 (pKi),Tyk2,E (E represents a pKi value of 7 or below (Ki of 100 nM or above))
same,JAK 1 (pKi),JAK1,E (E represents a pKi value of 7 or below (Ki of 100 nM or above))
same,Tall-1 (pIC50),[1]; [2],C (C represents a pIC50 value between 6 and 6.7 (IC50 between 1 μM and 200 nM))
same,JAK 3 (pKi),JAK3,B (B represents pKi value between 9 and 10 (Ki between 1 nM and 0.1 nM))
same,JAK3 (pKi)-JAK1 (pKi),JAK3; [3],A (A represents a value of 3 or above)
same,JAK 2 (pKi),JAK2,E (E represents a pKi value of 7 or below (Ki of 100 nM or above))
C=CC(=O)N1CCN(CCn2c(=O)ccc3cnc(Nc4ccc(N5CCN(C)CC5)c(C)c4)nc32)CC1 [Example 49],Tyk 2 (pKi),Tyk2,E (E represents a pKi value of 7 or below (Ki of 100 nM or above))
same,JAK 1 (pKi),JAK1,E (E represents a pKi value of 7 or below (Ki of 100 nM or above))
same,Tall-1 (pIC50),[1]; [2],B (B represents a pC50 value between 6.7 (included) and 7.5 (IC50 between 200 nM and 32 nM))
same,JAK 3 (pKi),JAK3,B (B represents pKi value between 9 and 10 (Ki between 1 nM and 0.1 nM))
same,JAK3 (pKi)-JAK1 (pKi),JAK3; [3],A (A represents a value of 3 or above)
same,JAK 2 (pKi),JAK2,E (E represents a pKi value of 7 or below (Ki of 100 nM or above))
C=CC(=O)N1CC(CCn2c(=O)ccc3cnc(Nc4ccc(N5CCN(C(=O)NC)CC5)cc4)nc32)C1 [Example 93],Tyk 2 (pKi),Tyk2,E (E represents a pKi value of 7 or below (Ki of 100 nM or above))
same,JAK 1 (pKi),JAK1,E (E represents a pKi value of 7 or below (Ki of 100 nM or above))
same,Tall-1 (pIC50),[1]; [2],B (B represents a pC50 value between 6.7 (included) and 7.5 (IC50 between 200 nM and 32 nM))
same,JAK 3 (pKi),JAK3,A (A represents a pKi value≥10 (Ki≤0.1 nM))
same,JAK3 (pKi)-JAK1 (pKi),JAK3; [3],A (A represents a value of 3 or above)
same,JAK 2 (pKi),JAK2,E (E represents a pKi value of 7 or below (Ki of 100 nM or above))
C=CC(=O)N1CCN(CCn2c(=O)ccc3cnc(Nc4cnn(CC)c4)nc32)[C@@H](CC)C1 [Example 242],Tyk 2 (pKi),Tyk2,E (E represents a pKi value of 7 or below (Ki of 100 nM or above))
same,JAK 1 (pKi),JAK1,E (E represents a pKi value of 7 or below (Ki of 100 nM or above))
same,Tall-1 (pIC50),[1]; IL-2 stimulated pSTAT5 in Tall-1 T cells,B (B represents a pC50 value between 6.7 (included) and 7.5 (IC50 between 200 nM and 32 nM))
same,JAK 3 (pKi),JAK3,B (B represents pKi value between 9 and 10 (Ki between 1 nM and 0.1 nM))
same,JAK3 (pKi)-JAK1 (pKi),"JAK3; selectivity, difference of pKi values",A (A represents a value of 3 or above)
same,JAK 2 (pKi),JAK2,E (E represents a pKi value of 7 or below (Ki of 100 nM or above))
C=CC(=O)N1CCN(CCn2c(=O)ccc3cnc(Nc4ccc(N5CCN(C(=O)CC(C)C)CC5)cc4)nc32)CC1 [Example 212],Tyk 2 (pKi),Tyk2,E (E represents a pKi value of 7 or below (Ki of 100 nM or above))
same,JAK 1 (pKi),JAK1,E (E represents a pKi value of 7 or below (Ki of 100 nM or above))
same,Tall-1 (pIC50),[1]; [2],B (B represents a pC50 value between 6.7 (included) and 7.5 (IC50 between 200 nM and 32 nM))
same,JAK 3 (pKi),JAK3,A (A represents a pKi value≥10 (Ki≤0.1 nM))
same,JAK3 (pKi)-JAK1 (pKi),JAK3; [3],A (A represents a value of 3 or above)
same,JAK 2 (pKi),JAK2,E (E represents a pKi value of 7 or below (Ki of 100 nM or above))
C=CC(=O)N1CC(CCn2c(=O)ccc3cnc(Nc4ccc(CN5CCN(C)CC5)cc4)nc32)C1 [Example 46],Tyk 2 (pKi),Tyk2,E (E represents a pKi value of 7 or below (Ki of 100 nM or above))
same,JAK 1 (pKi),JAK1,E (E represents a pKi value of 7 or below (Ki of 100 nM or above))
same,Tall-1 (pIC50),[1]; [2],B (B represents a pC50 value between 6.7 (included) and 7.5 (IC50 between 200 nM and 32 nM))
same,JAK 3 (pKi),JAK3,B (B represents pKi value between 9 and 10 (Ki between 1 nM and 0.1 nM))
same,JAK3 (pKi)-JAK1 (pKi),JAK3; [3],A (A represents a value of 3 or above)
same,JAK 2 (pKi),JAK2,E (E represents a pKi value of 7 or below (Ki of 100 nM or above))
C=CC(=O)N1CCN(CCn2c(=O)ccc3cnc(Nc4cnn(C)c4)nc32)C2(CC2)C1 [Example 149],Tyk 2 (pKi),Tyk2,E (E represents a pKi value of 7 or below (Ki of 100 nM or above))
same,JAK 1 (pKi),JAK1,E (E represents a pKi value of 7 or below (Ki of 100 nM or above))
same,Tall-1 (pIC50),[1]; [2],C (C represents a pIC50 value between 6 and 6.7 (IC50 between 1 μM and 200 nM))
same,JAK 3 (pKi),JAK3,B (B represents pKi value between 9 and 10 (Ki between 1 nM and 0.1 nM))
same,JAK3 (pKi)-JAK1 (pKi),JAK3; [3],A (A represents a value of 3 or above)
same,JAK 2 (pKi),JAK2,E (E represents a pKi value of 7 or below (Ki of 100 nM or above))

# Reference: patent US11697648B2, “Fused pyrimidine pyridinone compounds as JAK inhibitors” (THERAVANCE BIOPHARMA R&D IP, LLC, priority 2019, dated 2023)
